According to PubChem BioAssay AID788 (SRMLSC, 2007):
Active and inactive are the calls of the source. No rule for the calls is given here.

Key:
[1] = tested on: S. cerevisiae vps1Δ apl2Δ growth inhibition, dose response; assay: vps1Δ apl2Δ double mutant yeast growth inhibitors – S. cerevisiae, background strain comparison, post-Golgi transport modulator project, dose response (AID 788)
[2] = tested on: S. cerevisiae wild-type background strain growth inhibition; assay: as above; conditions: S. cerevisiae vps1Δ apl2Δ growth inhibition, dose response; measured here: wild-type background strain growth

Structure (SMILES)	IC50 [1]	IC50 [2]
O=C(NCCSCc1ccc(Cl)cc1Cl)c1ccc(CN2CCOCC2)cc1	13.5 µM	> 10 µM
O=C(OCn1nnc2ccccc2c1=O)c1cn(-c2ccccc2)nc1-c1cccnc1	> 10 µM (inactive)	> 10 µM
Cc1cc2ncn(CC(O)COc3cccc(C(=O)O)c3)c2cc1C (centres undefined)	> 10 µM (inactive)	> 10 µM
CC(=O)c1cnc2nc(C)nn2c1C	> 10 µM (inactive)	> 10 µM
Cc1ccc2nc(C)cc(OCC(=O)O)c2c1	> 10 µM (inactive)	> 10 µM
Cc1nnc(-c2cccc(Br)c2)c2cn(-c3ccccc3Cl)nc12	2.73 µM	25.9 µM
O=C(NCC(c1cccnc1)N1CCN(c2ccccc2)CC1)c1ccc2c(c1)OCO2 (centres undefined)	> 10 µM (inactive)	> 10 µM
C=CCc1ccccc1OCC(O)CN1CCN(Cc2ccc3c(c2)OCO3)CC1 (centres undefined)	4.4 µM	> 10 µM
N#CC1=C2SCC(O)(c3ccccc3)N2C(=O)CC1c1ccccc1 (centres undefined)	> 10 µM (inactive)	> 10 µM
CN1CCN(CCCNC(=O)Cn2nc(-c3ccccc3)ccc2=O)CC1	> 10 µM (inactive)	> 10 µM
CCN1C(=O)c2ccc(C(=O)NCc3ccccc3)cc2C1=O	> 10 µM (inactive)	> 10 µM
O=C(Cn1ncc2c3ccccc3n(Cc3ccccc3F)c2c1=O)N1CCC2(CC1)OCCO2	> 10 µM (inactive)	> 10 µM
O=C(COc1ccc(Cl)cc1)Nc1ccc(N2CCN(C(=O)c3ccco3)CC2)cc1	> 10 µM (inactive)	> 10 µM
CCOC(=O)c1ccc(NC(=O)c2cn(-c3ccccc3)nc2-c2ccncc2)cc1	19.1 µM (inactive)	11.5 µM
CCOC(=O)c1c(NC(=O)CN2CCCCC2)sc2c1CCC(C=O)=C2Cl	> 10 µM (inactive)	> 10 µM
O=C(C1CCN(S(=O)(=O)c2cccs2)CC1)N1CCCCCC1	> 10 µM (inactive)	> 10 µM
O=C(COc1ccc(Cl)cc1Cl)NCCCN1CCOCC1	20.8 µM	> 10 µM
CCOC(=O)C1CCN(Cc2cnc(Oc3ccc(Cl)cc3C)s2)CC1	26 µM	> 10 µM
Cc1sc(NC(=O)c2ccco2)c(C(c2cccnc2)N2CCC(C)CC2)c1C (centres undefined)	9.99 µM (inactive)	5.77 µM
c1ccc(Nc2cc(-c3ccccc3)nc3ncnn23)cc1	6.29 µM	> 10 µM
CCOC(=O)C(NC(C)=O)(Nc1ccc(S(=O)(=O)Nc2onc(C)c2C)cc1)C(F)(F)F (centres undefined)	> 10 µM (inactive)	> 10 µM

Structure (SMILES)	IC50 [1]	IC50 [2]
Cc1ccc(/C=N/n2cnc3sc(-c4ccccc4)cc3c2=O)o1	> 10 µM (inactive)	> 10 µM
O=c1cccc2n1CC1CC2CN(S(=O)(=O)c2ccccc2)C1 (centres undefined)	> 10 µM (inactive)	> 10 µM
O=c1c2c3c(sc2ncn1/N=C/c1ccc([N+](=O)[O-])o1)CCCC3	1.8 µM (inactive)	1.59 µM
CCOCCCNC(=O)c1cc2sc(Cl)cc2n1CC	> 10 µM (inactive)	> 10 µM
CCN(CC)c1nc2cc(OC)ccc2cc1C#N	> 10 µM (inactive)	> 10 µM
O=C(Nc1cc(C(F)(F)F)ccc1-n1cncn1)c1ccc(-c2ccccc2)cc1	> 10 µM (inactive)	> 10 µM
O=C(NC(C(=O)c1ccccc1)N1CCCCC1)c1ccccc1 (centres undefined)	> 10 µM (inactive)	> 10 µM
CS(=O)(=O)N1CCC(C(=O)NCCN2CCN(Cc3ccccc3)CC2)CC1	> 10 µM (inactive)	> 10 µM
CCOC(=O)c1ccc(NC(=O)c2ccc(CN3CCOCC3)cc2)cc1	24.9 µM	> 10 µM
C=C(C)C1CC=C(CN2CC(C)OC(C)C2)CC1 (centres undefined)	4.44 µM	> 10 µM
CCc1n[nH]c2c1/C(=N\O)CC(C)(C)C2	> 10 µM (inactive)	> 10 µM
COc1ccc(NC(=O)c2ccc(CN3CCN(c4ccccc4)CC3)cc2)cc1	> 10 µM (inactive)	> 10 µM
CCCn1nc([N+](=O)[O-])c(C(C#N)c2nc3ccccc3s2)c(Cl)c1=O (centres undefined)	5.34 µM (inactive)	2.16 µM
N#CC1=C(N)C(C#N)(C#N)C(c2cccnc2)C2CC(c3ccccc3)CC=C12 (centres undefined)	2.89 µM	2.97 µM
COc1ccc(-c2cc(N)n(S(=O)(=O)c3c(F)c(F)c(F)c(F)c3F)n2)cc1OC	2.5 µM (inactive)	1.08 µM
CC1CCCN(CCOCCOc2ccc(Cl)cc2Br)C1 (centres undefined)	2.5 µM	> 10 µM
Cc1cc([N+](=O)[O-])c(-c2ccc(/C=N/n3cnnc3)o2)cc1Cl	0.39 µM (inactive)	0.134 µM
Cc1cc(=O)[nH]c(SCC(=O)c2ccc(C)c(C)c2)n1	2.13 µM	2.31 µM
COc1ccc(C(=O)Nc2ccc(Cl)cc2C(=O)N2CCCC(C)C2)cc1 (centres undefined)	> 10 µM (inactive)	> 10 µM
O=C(Nc1nnc(-c2ccc3c(c2)CCCC3)o1)c1ccc(Cl)cc1Cl	6.32 µM (inactive)	3.46 µM
CCCCCOc1ccc(CN2CCOCC2)cc1Cl	3.92 µM	> 10 µM

Structure (SMILES)	IC50 [1]	IC50 [2]
CCSc1nnc(NC(=O)NCC(F)(F)F)s1	> 10 µM (inactive)	> 10 µM
CCC(OC(=O)C(NC(=O)c1ccccc1)c1ccccc1)C(=O)Nc1cc(C)on1 (centres undefined)	> 10 µM (inactive)	> 10 µM
O=C1NC2(Nc3ccccc31)C(=O)Nc1ccccc12 (centres undefined)	> 10 µM (inactive)	> 10 µM
CCCCC(c1nnnn1Cc1ccco1)N1CCN(c2nc3ccccc3s2)CC1 (centres undefined)	19.7 µM (inactive)	3.9 µM
COc1ccccc1N1CCN(Cc2ccccc2F)CC1	> 10 µM (inactive)	> 10 µM
Cc1nn(Cc2cccc(C(=O)NC(C)c3ccc(C(C)(C)C)cc3)c2)c(C)c1[N+](=O)[O-] (centres undefined)	> 10 µM (inactive)	> 10 µM
Cc1cc(C)n2nc(C(=O)NCc3ccccc3)cc2n1	> 10 µM (inactive)	> 10 µM
Cc1ccc(C)c(C(=O)NCc2ccncc2)c1	> 10 µM (inactive)	> 10 µM
Clc1ccc2[nH]c3c(NCC4CCCO4)ncnc3c2c1 (centres undefined)	> 10 µM (inactive)	> 10 µM
CCCC(=O)Nc1ccc(Cl)c(NC(=O)c2cccnc2Cl)c1	> 10 µM (inactive)	> 10 µM
Clc1ccc(Cn2nnc(-c3ccc(CN4CCOCC4)cc3)n2)cc1	1.33 µM	> 10 µM
N[C@@H](Cc1c[nH]c2ccccc12)c1nnc(SCc2ccc(Cl)cc2)o1	24.8 µM (inactive)	20.4 µM
Cc1ccc(S(=O)(=O)N2CC3CC(C2)c2cccc(=O)n2C3)cc1 (centres undefined)	> 10 µM (inactive)	> 10 µM
CCCOc1ccccc1N/C(=N/c1nc(C)cc(C)n1)NC(=O)COc1ccc(OC)cc1	> 10 µM (inactive)	> 10 µM
CCOC(=O)NC(Nc1ccc(S(N)(=O)=O)cc1)(C(=O)OCC)C(F)(F)F (centres undefined)	> 10 µM (inactive)	> 10 µM
O=C(Cn1nnc(-c2ccc(S(=O)(=O)N3CCCC3)cc2)n1)NCC1CCCO1 (centres undefined)	> 10 µM (inactive)	> 10 µM
Nc1cc(N)c(OCC(F)(F)F)cc1OCC(F)(F)F	> 10 µM (inactive)	> 10 µM
Cn1c(=O)c2nc(NCc3ccccc3)cnc2n(C)c1=O	> 10 µM (inactive)	> 10 µM
CC1CN(CCCCOc2ccc(C(C)C)cc2)CC(C)O1 (centres undefined)	0.703 µM	> 10 µM
COc1ccc2oc(=O)c(-c3nnc(NCc4ccco4)s3)cc2c1	> 10 µM (inactive)	> 10 µM
Cc1ccnc(N2C(=O)c3cccc4c([N+](=O)[O-])ccc(c34)C2=O)c1	5.37 µM (inactive)	4.22 µM

Structure (SMILES)	IC50 [1]	IC50 [2]
CC(C)Cc1[nH]c(=O)c(C#N)c2c1CCC2	> 10 µM (inactive)	> 10 µM
CCCCOc1ccc(-c2ncc(C(=O)O)c(C)n2)cc1	> 10 µM (inactive)	> 10 µM
Cc1ccc(CSc2nc3ccccc3cc2C=O)cc1	2.37 µM (inactive)	2.1 µM
CCOC(=O)c1cccnc1SCc1cc(=O)n2ccccc2n1	> 10 µM (inactive)	> 10 µM
Cc1c(C)c2cc(Cl)c(O)c(CN3CCN(C)CC3)c2oc1=O	> 10 µM (inactive)	> 10 µM
COc1ccc(NC(=O)N(C2CCCCC2)C(C)c2cccnc2)c(OC)c1 (centres undefined)	9.51 µM	16.7 µM
CCOC(=O)c1c(CN2CCCCC2C)oc2ccc(OC)cc12 (centres undefined)	> 10 µM (inactive)	> 10 µM
O=C(NCc1ccc2c(c1)OCO2)c1ccc(CS(=O)(=O)c2cccc(C(F)(F)F)c2)o1	> 10 µM (inactive)	> 10 µM
FC(F)(F)COc1nc(N2CCCCC2)nc(N2CCNCC2)n1	> 10 µM (inactive)	> 10 µM
CCCn1c(SCc2cc(=O)oc3ccc4ccccc4c23)n[nH]c1=O	> 10 µM (inactive)	> 10 µM
CCOC(=O)C(C)Oc1ccc2c(C)cc(=O)oc2c1C(C)=O (centres undefined)	> 10 µM (inactive)	> 10 µM
CCn1c(SCC(=O)N2CCCc3ccccc32)nnc1-c1ccco1	> 10 µM (inactive)	> 10 µM
O=C1c2ccccc2C(=O)c2c1oc(C(F)(F)F)c2C(=O)c1ccccc1	2.92 µM (inactive)	2.2 µM
O=C(NCc1ccco1)C(c1cccs1)N(C(=O)Cc1cccs1)c1ccccc1 (centres undefined)	> 10 µM (inactive)	> 10 µM
O=C(c1ccc(Cl)cc1Cl)N1CCC(c2nc3c(nnn3Cc3ccco3)c(=O)[nH]2)CC1	> 10 µM (inactive)	> 10 µM
N#Cc1nc(COc2ccc(-c3ccccc3)cc2)oc1NCCCN1CCOCC1	13.8 µM	15.4 µM
c1coc(CNc2nc(N3CCCCC3)nc3ccccc23)c1	> 10 µM (inactive)	> 10 µM
CCOc1cccc(C(=O)Nc2cccnc2)c1	> 10 µM (inactive)	> 10 µM
O=C(Cc1cccs1)Nc1nc2c(s1)CCCC2	> 10 µM (inactive)	> 10 µM
